# Laboratory results from ChEMBL document CHEMBL1240326, “ATP non-competitive IGF-1 receptor kinase inhibitors as lead anti-neoplastic and anti-papilloma agents” (Eur J Pharmacol, 2007).
# Legend:
# [1] = molecular target: Proto-oncogene tyrosine-protein kinase Src (Homo sapiens, UniProt P12931); assay: Inhibition of human GST-fused Src-mediated Poly Glu4Tyr phosphorylation by ELISA
# cells = conditions: Homo sapiens, HF1, 48 h
# Description: Growth inhibition of human HF1 cells transfected with HPV16 after 48 hrs by micro culture methylene blue assay
# Keratinocyte = assay: cells; conditions: Homo sapiens, 72 h
# Description: Growth inhibition of human primary keratinocytes after 72 hrs by micro culture methylene blue assay
# Sequence of Proto-oncogene tyrosine-protein kinase Src (P12931 2-536 limits assumed): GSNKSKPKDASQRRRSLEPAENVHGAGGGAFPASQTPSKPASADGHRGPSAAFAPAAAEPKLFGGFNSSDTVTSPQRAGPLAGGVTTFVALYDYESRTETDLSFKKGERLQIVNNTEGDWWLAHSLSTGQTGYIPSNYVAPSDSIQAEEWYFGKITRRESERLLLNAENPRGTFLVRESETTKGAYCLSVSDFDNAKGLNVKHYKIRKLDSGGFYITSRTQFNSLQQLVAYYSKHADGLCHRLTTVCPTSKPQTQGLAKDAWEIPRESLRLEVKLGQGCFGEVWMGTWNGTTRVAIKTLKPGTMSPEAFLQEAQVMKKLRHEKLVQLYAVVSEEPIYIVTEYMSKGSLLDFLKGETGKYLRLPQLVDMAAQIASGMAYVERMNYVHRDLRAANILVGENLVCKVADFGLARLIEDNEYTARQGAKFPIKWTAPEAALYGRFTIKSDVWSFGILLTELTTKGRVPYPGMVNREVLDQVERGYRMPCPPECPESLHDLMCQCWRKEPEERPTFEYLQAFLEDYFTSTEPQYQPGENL
IC50 [1],IC50 (cells),IC50 (Keratinocyte),Structure (SMILES)
1.86 µM,170 µM,73 µM,Oc1ccc(CNc2ccc3c(c2)OCO3)cc1O
0.83 µM,106 µM,18 µM,Oc1ccc(CN(Cc2ccc(O)c(O)c2)c2ccc3c(c2)OCO3)cc1O
,390 µM,,N#C/C(=C\c1ccc(O)c(O)c1)C(=O)c1ccc(O)c(O)c1
